Non-standard residues stand in square brackets, D forms with d. Residues, ends and D or L forms follow the SMILES beside them. dArg(NO2) = N=C(NCCC[C@@H](N)C(=O)O)N[N+](=O)[O-]
What was measured:
Homo sapiens [1] = organism: Homo sapiens; assay: Selectivity ratio of IC50 for recombinant GluN2A/GluN2D receptor (unknown origin) to IC50 for GluN2C/GluN2D (unknown origin) receptor
L-type calcium channel = L-type calcium channel (Mus musculus, UniProt Q01815+Q02789+Q99246+Q9JIS7); assay: Inhibition of Voltage-dependent L-type calcium channel in mouse medium spiny neurons by whole cell patch clamp assay
[2] = Inhibition of NMDA receptor in mouse medium spiny neurons by whole cell patch clamp assay
Mus musculus = organism: Mus musculus; assay: Neuroprotective activity in amyotrophic lateral sclerosis mouse model expressing human SOD1 G93A mutant assessed as increase in life span relative to control; type: functional
Nitric oxide synthase 1 [3] = molecular target: Nitric oxide synthase 1 (Homo sapiens, UniProt P29475); assay: Inhibition of human nNOS
Chain of Nitric oxide synthase 1 (Homo sapiens, UniProt P29475) (P29475 whole entry): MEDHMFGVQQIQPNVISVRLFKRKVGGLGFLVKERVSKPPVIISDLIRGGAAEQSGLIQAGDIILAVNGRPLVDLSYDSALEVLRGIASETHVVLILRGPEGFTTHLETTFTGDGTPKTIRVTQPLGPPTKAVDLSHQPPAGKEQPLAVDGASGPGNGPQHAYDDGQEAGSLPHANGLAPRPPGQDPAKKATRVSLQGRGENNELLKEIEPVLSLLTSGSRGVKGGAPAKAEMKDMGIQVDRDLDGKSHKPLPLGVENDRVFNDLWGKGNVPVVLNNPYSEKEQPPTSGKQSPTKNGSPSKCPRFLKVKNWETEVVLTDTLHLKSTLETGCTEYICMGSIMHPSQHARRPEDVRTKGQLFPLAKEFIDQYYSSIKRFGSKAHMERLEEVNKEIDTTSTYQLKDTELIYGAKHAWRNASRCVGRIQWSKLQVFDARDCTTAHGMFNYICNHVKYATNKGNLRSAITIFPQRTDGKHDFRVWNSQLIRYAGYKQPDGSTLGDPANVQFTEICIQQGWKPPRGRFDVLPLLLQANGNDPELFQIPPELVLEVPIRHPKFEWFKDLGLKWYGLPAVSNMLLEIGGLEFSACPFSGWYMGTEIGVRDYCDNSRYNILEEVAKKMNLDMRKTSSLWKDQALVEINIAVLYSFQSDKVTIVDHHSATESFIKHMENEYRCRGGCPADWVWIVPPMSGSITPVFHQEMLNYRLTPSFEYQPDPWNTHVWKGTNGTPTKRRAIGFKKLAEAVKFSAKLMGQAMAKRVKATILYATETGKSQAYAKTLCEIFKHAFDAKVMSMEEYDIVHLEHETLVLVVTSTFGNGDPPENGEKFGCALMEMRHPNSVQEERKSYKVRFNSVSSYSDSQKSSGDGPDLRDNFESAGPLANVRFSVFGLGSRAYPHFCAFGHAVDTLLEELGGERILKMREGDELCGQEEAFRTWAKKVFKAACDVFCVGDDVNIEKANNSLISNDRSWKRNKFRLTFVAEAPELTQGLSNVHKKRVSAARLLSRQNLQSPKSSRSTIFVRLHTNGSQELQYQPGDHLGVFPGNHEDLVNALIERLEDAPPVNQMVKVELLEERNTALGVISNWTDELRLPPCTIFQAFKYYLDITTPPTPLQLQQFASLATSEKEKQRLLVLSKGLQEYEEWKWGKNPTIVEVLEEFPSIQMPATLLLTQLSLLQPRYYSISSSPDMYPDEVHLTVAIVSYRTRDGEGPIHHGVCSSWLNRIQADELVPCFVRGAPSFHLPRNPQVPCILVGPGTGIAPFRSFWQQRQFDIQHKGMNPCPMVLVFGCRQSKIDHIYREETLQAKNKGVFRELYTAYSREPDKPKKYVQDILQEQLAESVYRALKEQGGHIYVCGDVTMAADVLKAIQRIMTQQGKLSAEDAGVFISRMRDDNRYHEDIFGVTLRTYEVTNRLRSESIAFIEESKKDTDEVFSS

[4] = molecular target: Nitric oxide synthase, inducible (Homo sapiens, UniProt P35228); assay: Inhibition of human iNOS
Nitric oxide synthase 3 = molecular target: T1, Nitric oxide synthase 3 (Homo sapiens, UniProt P29474); assay: Inhibition of human eNOS
T1 sequence (P29474 whole entry): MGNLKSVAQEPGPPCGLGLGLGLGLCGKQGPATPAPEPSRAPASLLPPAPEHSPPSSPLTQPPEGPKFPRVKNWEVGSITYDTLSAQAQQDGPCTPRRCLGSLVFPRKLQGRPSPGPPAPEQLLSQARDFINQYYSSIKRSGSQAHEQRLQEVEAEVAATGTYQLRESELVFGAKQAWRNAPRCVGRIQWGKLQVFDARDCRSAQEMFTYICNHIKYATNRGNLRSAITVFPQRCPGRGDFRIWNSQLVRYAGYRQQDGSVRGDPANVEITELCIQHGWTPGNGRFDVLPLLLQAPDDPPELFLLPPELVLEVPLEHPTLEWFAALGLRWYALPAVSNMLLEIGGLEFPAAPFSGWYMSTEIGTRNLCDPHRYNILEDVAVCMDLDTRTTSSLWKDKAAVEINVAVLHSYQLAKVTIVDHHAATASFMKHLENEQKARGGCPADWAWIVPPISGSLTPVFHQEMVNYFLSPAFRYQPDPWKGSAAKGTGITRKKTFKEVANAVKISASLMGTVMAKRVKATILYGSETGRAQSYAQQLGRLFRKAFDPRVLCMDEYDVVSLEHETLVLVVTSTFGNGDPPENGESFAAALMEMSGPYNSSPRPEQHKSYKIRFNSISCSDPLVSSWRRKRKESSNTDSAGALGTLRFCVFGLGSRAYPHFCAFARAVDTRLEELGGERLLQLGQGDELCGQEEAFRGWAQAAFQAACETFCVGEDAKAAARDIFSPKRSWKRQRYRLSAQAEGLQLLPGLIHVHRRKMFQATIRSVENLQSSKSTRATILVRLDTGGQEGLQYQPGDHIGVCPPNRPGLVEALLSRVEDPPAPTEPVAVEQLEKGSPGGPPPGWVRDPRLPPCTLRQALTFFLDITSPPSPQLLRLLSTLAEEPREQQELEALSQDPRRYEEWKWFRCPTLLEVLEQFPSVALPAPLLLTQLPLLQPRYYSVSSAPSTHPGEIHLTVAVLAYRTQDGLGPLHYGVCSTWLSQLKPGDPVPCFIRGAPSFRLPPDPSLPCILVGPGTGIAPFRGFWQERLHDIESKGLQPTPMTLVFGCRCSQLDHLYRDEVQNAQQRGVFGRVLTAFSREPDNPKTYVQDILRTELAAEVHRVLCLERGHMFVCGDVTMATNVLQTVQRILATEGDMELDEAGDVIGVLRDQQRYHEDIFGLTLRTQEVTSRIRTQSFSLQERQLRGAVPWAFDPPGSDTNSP

[5] = Neuroprotective activity in rat Cortical neuron assessed as protection from glutamate-induced neurotoxicity treated after glutamate-challenge by lactate dehydrogenase assay; type: functional; conditions: cortical neurone
Homo sapiens [6] = organism: Homo sapiens; assay: Selectivity ratio of IC50 for NTD-deleted GluN1/NTD-deleted GluN2D receptor (unknown origin) to IC50 for NTD-deleted GluN1/NTD-deleted GluN2A receptor (unknown origin)
Huntingtin = Huntingtin (Homo sapiens, UniProt P42858); assay: Inhibition of HD exon 1 fusion protein with 51 glutamine residues (unknown origin) aggregation expressed in Escherichia coli SURE after 16 hrs by Western blotting analysis
Chain of Huntingtin (P42858 whole entry, looked up, the tested form may be a part): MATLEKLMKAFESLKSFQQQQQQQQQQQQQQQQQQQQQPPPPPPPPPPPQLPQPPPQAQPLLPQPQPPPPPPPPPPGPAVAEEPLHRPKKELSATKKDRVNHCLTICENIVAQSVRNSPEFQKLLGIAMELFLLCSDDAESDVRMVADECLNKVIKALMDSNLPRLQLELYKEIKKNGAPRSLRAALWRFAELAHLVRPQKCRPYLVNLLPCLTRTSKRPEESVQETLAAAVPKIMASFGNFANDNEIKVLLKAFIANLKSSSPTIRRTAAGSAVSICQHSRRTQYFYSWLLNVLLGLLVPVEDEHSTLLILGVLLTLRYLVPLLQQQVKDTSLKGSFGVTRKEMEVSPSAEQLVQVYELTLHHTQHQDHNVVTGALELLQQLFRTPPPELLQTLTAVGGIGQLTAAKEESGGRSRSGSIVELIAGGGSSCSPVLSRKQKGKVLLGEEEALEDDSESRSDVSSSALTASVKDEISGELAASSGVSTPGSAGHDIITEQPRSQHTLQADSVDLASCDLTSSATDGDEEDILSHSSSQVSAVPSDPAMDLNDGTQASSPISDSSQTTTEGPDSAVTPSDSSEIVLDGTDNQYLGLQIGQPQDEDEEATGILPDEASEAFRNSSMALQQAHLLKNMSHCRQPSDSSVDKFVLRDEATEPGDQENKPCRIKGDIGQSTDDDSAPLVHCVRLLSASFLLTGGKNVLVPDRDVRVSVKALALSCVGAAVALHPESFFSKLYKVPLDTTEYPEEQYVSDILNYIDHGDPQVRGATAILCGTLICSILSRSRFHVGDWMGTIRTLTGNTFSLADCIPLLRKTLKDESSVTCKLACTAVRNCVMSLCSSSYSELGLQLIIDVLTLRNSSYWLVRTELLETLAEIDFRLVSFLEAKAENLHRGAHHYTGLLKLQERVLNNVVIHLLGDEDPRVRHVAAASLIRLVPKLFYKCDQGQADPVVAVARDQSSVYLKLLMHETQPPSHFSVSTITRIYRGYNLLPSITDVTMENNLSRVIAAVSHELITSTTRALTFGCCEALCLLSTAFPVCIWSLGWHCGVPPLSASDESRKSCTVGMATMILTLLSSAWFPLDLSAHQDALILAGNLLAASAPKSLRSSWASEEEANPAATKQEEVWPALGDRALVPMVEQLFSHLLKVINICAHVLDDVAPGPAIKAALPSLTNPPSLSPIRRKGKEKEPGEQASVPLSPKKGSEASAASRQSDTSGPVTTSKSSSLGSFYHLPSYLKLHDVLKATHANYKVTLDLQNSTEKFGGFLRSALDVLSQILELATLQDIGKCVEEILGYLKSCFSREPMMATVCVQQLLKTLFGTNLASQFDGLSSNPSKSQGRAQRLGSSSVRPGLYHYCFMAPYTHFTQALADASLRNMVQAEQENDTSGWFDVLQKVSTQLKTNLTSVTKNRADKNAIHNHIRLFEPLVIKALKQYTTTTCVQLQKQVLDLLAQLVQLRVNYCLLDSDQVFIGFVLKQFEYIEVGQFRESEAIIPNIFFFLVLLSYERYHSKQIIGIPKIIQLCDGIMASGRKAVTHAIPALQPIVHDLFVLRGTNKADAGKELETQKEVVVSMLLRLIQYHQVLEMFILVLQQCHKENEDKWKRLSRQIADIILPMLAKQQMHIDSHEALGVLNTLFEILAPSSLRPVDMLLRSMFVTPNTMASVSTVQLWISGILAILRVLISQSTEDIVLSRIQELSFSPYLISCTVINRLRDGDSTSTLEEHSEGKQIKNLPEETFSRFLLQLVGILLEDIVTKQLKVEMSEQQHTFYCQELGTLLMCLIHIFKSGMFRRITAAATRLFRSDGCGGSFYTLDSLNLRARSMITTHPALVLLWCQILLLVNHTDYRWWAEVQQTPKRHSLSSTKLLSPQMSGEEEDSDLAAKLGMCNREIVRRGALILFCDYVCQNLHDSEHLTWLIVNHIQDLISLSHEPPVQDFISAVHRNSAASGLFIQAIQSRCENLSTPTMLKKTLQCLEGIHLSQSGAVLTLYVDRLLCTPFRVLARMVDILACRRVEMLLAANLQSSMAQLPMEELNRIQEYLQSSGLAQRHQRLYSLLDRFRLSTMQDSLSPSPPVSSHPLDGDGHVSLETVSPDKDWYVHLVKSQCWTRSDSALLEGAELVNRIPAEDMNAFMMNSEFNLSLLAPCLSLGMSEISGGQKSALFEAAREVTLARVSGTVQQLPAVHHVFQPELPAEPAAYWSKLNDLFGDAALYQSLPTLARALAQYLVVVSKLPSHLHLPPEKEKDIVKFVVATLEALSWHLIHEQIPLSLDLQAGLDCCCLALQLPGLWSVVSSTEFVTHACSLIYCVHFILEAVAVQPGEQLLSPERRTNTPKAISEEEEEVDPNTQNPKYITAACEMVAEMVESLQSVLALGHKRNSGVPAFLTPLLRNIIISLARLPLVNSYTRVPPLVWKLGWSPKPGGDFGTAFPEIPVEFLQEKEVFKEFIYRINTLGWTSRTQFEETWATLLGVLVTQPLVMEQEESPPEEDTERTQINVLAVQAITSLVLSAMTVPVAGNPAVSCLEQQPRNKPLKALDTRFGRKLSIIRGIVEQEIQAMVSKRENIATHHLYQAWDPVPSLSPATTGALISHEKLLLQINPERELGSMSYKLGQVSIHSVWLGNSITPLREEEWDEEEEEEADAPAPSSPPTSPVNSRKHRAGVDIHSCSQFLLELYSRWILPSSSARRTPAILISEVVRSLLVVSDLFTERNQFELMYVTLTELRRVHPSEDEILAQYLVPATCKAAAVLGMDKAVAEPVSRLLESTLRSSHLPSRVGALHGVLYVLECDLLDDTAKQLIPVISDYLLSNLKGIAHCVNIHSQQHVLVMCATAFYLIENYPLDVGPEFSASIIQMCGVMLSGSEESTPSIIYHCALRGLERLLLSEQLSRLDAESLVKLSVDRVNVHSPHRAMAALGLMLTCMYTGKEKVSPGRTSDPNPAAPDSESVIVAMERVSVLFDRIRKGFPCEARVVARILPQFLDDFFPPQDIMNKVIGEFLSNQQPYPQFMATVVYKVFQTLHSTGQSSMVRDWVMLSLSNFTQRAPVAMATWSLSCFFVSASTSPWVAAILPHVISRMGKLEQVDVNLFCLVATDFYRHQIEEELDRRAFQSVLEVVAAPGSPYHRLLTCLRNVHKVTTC

Homo sapiens [7] = assay: Neuroprotective activity in Parkinson disease patient assessed as reduction of L-DOPA-induced dyskinesia administered as infusion treated prior to L-DOPA-challenge relative to control; type: functional; parameters: scale not given: the % may be the effect or the level left
Homo sapiens [8] = organism: Homo sapiens; assay: Selectivity ratio of IC50 for human eNOS to IC50 for human nNOS
Canis familiaris = assay: Antialzheimer activity in Beagle dog assessed as reduction in CSF amyloid beta level at 5 mg/kg, po after 9 hrs relative to control; type: functional, Canis lupus familiaris; parameters: scale not given: the % may be the effect or the level left
[9] = molecular target: Microtubule-associated protein tau (Homo sapiens, UniProt P10636); assay: Inhibition of recombinant tau (unknown origin) aggregation
[10] = Selectivity ratio of Ki for bovine eNOS to Ki for rat nNOS
Nitric oxide synthase 1 [11] = molecular target: Nitric oxide synthase 1 (Rattus norvegicus, UniProt P29476)
[12] = Selectivity ratio of Ki for mouse iNOS to Ki for rat nNOS
[13] = Inhibition of bovine nNOS; parameters: species or system Bos taurus

Compound: Cc1ccc2[nH]c(=O)c(C3=NN(C(=O)CCC(=O)O)C(c4ccc(Br)cc4)C3)c(-c3ccccc3)c2c1 (stereo not given)
- Ratio IC50 (Homo sapiens [1]): > 50

Compound: Cc1ccc2c(c1)c1c(n2CCc2ccc(C)nc2)CCN(C)C1 [LATREPIRDINE]
- IC50 (L-type calcium channel): 50000 nM
- IC50 [2]: 10000 nM

Compound: [O-][n+]1cccc(/C(Cl)=N/OC[C@H](O)CN2CCCCC2)c1 [ARIMOCLOMOL]
- Activity (Mus musculus): 22%

Compound: NC(=Nc1ccc(CCNCCc2cccc(Cl)c2)cc1)c1cccs1
- IC50 (Nitric oxide synthase 1 [3]): 35 nM
- IC50 [4]: 5000 nM
- IC50 (Nitric oxide synthase 3): 3500 nM

Compound: CC(C(O)c1ccc(O)cc1)N1CCC(Cc2ccccc2)CC1 (stereo not given) [IFENPRODIL]
- IC50 [5]: 3500 nM

Compound: O=C(O)c1cc2cc(Br)ccc2oc1=O
- Ratio IC50 (Homo sapiens [6]): 23

Compound: COC(=O)c1ccc(C(=O)Nc2nc3ccc(C(=O)Nc4ccccc4)cc3s2)cc1
- IC50 (Huntingtin): 1200 nM

Compound: C[C@@H]([C@@H](O)c1ccc(O)cc1)N1CCC(O)(c2ccccc2)CC1 [TRAXOPRODIL]
- Activity (Homo sapiens [7]): 30%

Compound: N=C(Nc1ccc(CCNCCc2cccc(Cl)c2)cc1)c1cccs1
- Ratio IC50 (Homo sapiens [8]): 100

Compound: C[C@@]1(c2cc(-c3cncnc3)c(F)cc2F)CCSC(N)=N1 [LY-2811376]
- Activity (Canis familiaris): 70%

Compound: Cc1cc2nc3ccc(N(C)C)cc3[s+]c2cc1N [TOLONIUM CHLORIDE]
- Ki [9]: 69 nM

Compound: COC(=O)[C@@H](CCCNC(=N)N[N+](=O)[O-])NC(=O)[C@H](N)Cc1ccccc1 (H-[dF]-[dArg(NO2)]-OMe)
- Ratio Ki [10]: 2.6
- Ki (Nitric oxide synthase 1 [11]): 1900 nM
- Ratio Ki [12]: 1800

Compound: CN(C)CCOc1ccc(-c2cccc(N)n2)c2c1CCCC2
- IC50 (Nitric oxide synthase 1 [3]): 70 nM
- Ratio IC50 (Homo sapiens [8]): 50

Compound: C[C@@H](CN1CCC(Cc2ccccc2)CC1)[C@@H](O)c1ccc(O)cc1
- IC50 [5]: 400 nM

Compound: C=CNC(=N)NCCC[C@H](N)C(=O)O
- Ratio Ki [10]: 35
- Ki [13]: 200 nM
- Ratio Ki [12]: 11

Compound: N=C(NCCC[C@H](N)C(=O)O)N[N+](=O)[O-] [NITROARGININE]
- Ratio Ki [10]: 11
- Ratio Ki [12]: 293

Compound: CC(=O)CN1CCN(CCc2ccc(-c3cccc(N)n3)cc2)CC1
- IC50 (Nitric oxide synthase 1 [3]): 140 nM
- Ratio IC50 (Homo sapiens [8]): 6

Compound: N/N=C(\N)NCCC[C@H](N)C(=O)O
- Ratio Ki [10]: 8.3
- Ki [13]: 300 nM
- Ratio Ki [12]: 10
